Results reported in article PMC4790851, “Iminosugars Inhibit Dengue Virus Production via Inhibition of ER Alpha-Glucosidases—Not Glycolipid Processing Enzymes” (PLoS Neglected Tropical Diseases, 2016).

Assays:
MDMΦs = experiment: Cytotoxicity, MTS cell proliferation assay; assay type: cell-based, human
Description: Cytotoxicity of compounds was assessed by a cell proliferation assay for metabolic activity using a CellTiter 96 AQueous One Solution Cell Proliferation Assay (Promega) as per the manufacturer’s instructions. Briefly, 20 μl of a solution containing tetrazolium compound [3-(4,5-[…])-5-(3-carboxymethoxyphenyl)-2-(4-sulfophenyl)-2H-tetrazolium; MTS] and electron coupling reagent (phenazine ethosulfate) was added to cells covered or suspended in 100 μl of culture medium in a 96-well plate. Samples were incubated for approximately 4 hours (37°C, 5% CO2), and the absorbance at 490 nm (A490) was measured on a SpectraMax M5 microplate reader (Molecular Devices).

ER α-glucosidase II = target: T1, ER α-glucosidase II (Homo sapiens, UniProt Q14697); experiment: Free oligosaccharide analysis in MDMΦs: Glc1Man4GlcNAc1; assay type: cell-based; details: 48 h; for accumulation of Glc1Man4GlcNAc1: 1 μM, MDMΦs, all donors; for FOS representative of ER α-glucosidase II inhibition (Glc1Man4GlcNAc1): MNTD of iminosugar (NB-DNJ 100 μM), uninfected MDMΦs
T1 construct: endogenous in cells; host or cells: primary human monocyte-derived macrophages (MDMΦ)
T1 sequence (Q14697 29-944): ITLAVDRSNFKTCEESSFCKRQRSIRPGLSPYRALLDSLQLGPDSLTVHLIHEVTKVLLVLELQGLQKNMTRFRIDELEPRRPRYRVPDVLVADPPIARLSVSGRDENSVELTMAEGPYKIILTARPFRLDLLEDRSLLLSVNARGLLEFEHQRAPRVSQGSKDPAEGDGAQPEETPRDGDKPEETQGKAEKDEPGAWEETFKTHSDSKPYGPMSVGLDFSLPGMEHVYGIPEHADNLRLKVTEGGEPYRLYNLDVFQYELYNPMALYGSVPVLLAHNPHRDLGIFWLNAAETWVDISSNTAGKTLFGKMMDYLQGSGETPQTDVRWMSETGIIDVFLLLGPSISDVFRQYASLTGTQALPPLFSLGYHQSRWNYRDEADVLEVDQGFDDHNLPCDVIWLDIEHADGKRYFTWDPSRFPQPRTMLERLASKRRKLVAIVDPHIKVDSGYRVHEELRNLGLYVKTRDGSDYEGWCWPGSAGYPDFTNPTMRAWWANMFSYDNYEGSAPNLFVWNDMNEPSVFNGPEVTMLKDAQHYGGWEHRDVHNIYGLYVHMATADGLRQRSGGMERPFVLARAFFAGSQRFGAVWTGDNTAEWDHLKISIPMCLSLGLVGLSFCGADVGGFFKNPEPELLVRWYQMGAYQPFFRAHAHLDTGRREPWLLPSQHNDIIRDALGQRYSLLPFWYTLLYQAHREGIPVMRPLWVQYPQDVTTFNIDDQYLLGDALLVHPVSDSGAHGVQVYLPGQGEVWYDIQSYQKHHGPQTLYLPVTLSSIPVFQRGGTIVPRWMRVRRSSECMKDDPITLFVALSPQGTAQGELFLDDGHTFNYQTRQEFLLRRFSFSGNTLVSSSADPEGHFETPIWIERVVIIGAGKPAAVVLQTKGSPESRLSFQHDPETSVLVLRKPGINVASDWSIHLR
T1 sequence (P14314 15-528 partner): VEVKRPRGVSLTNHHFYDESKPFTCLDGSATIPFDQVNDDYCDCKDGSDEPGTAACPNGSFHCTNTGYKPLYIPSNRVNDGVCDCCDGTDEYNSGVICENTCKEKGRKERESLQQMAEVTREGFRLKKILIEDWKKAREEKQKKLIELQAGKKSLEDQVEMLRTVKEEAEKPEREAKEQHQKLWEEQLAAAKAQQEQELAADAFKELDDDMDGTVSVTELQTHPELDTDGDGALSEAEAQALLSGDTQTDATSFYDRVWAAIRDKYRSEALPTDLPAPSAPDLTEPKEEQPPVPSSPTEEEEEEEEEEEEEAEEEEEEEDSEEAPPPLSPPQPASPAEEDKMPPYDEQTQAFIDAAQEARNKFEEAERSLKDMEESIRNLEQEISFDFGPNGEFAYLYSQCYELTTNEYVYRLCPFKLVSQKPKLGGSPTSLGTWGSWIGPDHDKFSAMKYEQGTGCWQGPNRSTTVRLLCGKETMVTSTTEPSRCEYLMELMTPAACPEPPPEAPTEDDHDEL

[1] = target: T2, Human lysosome α-galactosidase (Homo sapiens, UniProt P06280); experiment: In vitro enzyme inhibition; assay type: biochemical; details: concentration required to inhibit the enzyme to 50% activity; read-out: IC50
T2 sequence (P06280 32-429): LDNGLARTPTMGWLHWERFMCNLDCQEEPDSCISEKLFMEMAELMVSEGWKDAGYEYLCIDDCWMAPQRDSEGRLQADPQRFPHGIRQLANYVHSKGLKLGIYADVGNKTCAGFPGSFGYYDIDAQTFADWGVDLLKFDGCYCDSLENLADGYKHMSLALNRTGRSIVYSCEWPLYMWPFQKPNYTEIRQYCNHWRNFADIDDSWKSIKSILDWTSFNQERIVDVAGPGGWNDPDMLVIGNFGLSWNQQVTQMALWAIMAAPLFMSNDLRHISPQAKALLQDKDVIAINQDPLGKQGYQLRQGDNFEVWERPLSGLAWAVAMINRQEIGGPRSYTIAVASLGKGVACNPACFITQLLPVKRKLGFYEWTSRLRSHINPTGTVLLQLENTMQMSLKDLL

CCCC(=O)O[C@H]1CN2CC[C@H](O)[C@@H]2[C@@H](O)[C@@H]1O [Celgosivir, 6-O-butanoyl-castanospermine]
MNTD (maximum non-toxic dose tested) (MDMΦs): 100 µM
accumulation of Glc1Man4GlcNAc1 (ER α-glucosidase II): led to accumulation of Glc1Man4GlcNAc1
IC50 [1]: > 1000 µM

CCCCN1C[C@H](O)[C@@H](O)[C@@H](O)[C@H]1CO [NB-DGJ]
MNTD (maximum non-toxic dose tested) (MDMΦs): 100 µM
concentration up to which cytotoxicity was not detected (MDMΦs): > 100 µM
FOS representative of ER α-glucosidase II inhibition (Glc1Man4GlcNAc1) (ER α-glucosidase II): fail to produce detectable ER α-glucosidase associated FOS

CCCCN1C[C@H](O)[C@@H](O)[C@H](O)[C@H]1CO [NB-DNJ, N-butyl-DNJ]
MNTD (maximum non-toxic dose tested) (MDMΦs): 100 µM
accumulation of Glc1Man4GlcNAc1 (ER α-glucosidase II): led to accumulation of Glc1Man4GlcNAc1
FOS representative of ER α-glucosidase II inhibition (Glc1Man4GlcNAc1) (ER α-glucosidase II): accumulation of peaks representative of inhibition of both α-glucosidases

CCCCCCCCCN1C[C@H](O)[C@@H](O)[C@@H](O)[C@H]1CO [NN-DGJ]
MNTD (maximum non-toxic dose tested) (MDMΦs): 31.6 µM
IC50 [1]: 35.5 µM
